Laboratory results: the supplement of paper PMC10307832

Key:
Assay in all cases: relative viability (nuclei count vs DMSO), 5 days (fraction); higher = more cells survive
AZ505 + Lapatinib = compound: C1CCC(CC1)N(CCNCCC2=C3C(=C(C=C2)O)NC(=O)CO3)C(=O)CCNCCC4=CC(=C(C=C4)Cl)Cl [AZ505] + CS(=O)(=O)CCNCc1ccc(-c2ccc3ncnc(Nc4ccc(OCc5cccc(F)c5)c(Cl)c4)c3c2)o1 [Lapatinib] (partner 2 µM)
Summary of the method: (§1)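 Cells from lung cancer lines were seeded into 1536-well plates and, one day later, dosed by pin tool. Treatments were either a single drug or a fixed dose of an anchor drug with five library-drug doses (not always all listed) in √10 steps. After 5 days, nuclei were stained in a one-step fixation (final 0.05% Triton X-100, 1% formaldehyde, 1 ug/ml Hoechst) and counted on 4× images, and relative viability is the treated-to-vehicle nuclei ratio, as the median of duplicate plates.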

Dactolisib + Tozasertib = compound: Cn1c(=O)n(-c2ccc(C(C)(C)C#N)cc2)c2c3cc(-c4cnc5ccccc5c4)ccc3ncc21 [Dactolisib] + Cc1cc(Nc2cc(N3CCN(C)CC3)nc(Sc3ccc(NC(=O)C4CC4)cc3)n2)n[nH]1 [Tozasertib] (partner 0.1 µM)
Summary of the method: as §1

Dactolisib + Alpelisib = compound: Cn1c(=O)n(-c2ccc(C(C)(C)C#N)cc2)c2c3cc(-c4cnc5ccccc5c4)ccc3ncc21 [Dactolisib] + Cc1nc(NC(=O)N2CCC[C@H]2C(N)=O)sc1-c1ccnc(C(C)(C)C(F)(F)F)c1 [Alpelisib] (partner 2 µM)
Summary of the method: as §1

Dactolisib + Olaparib = compound: Cn1c(=O)n(-c2ccc(C(C)(C)C#N)cc2)c2c3cc(-c4cnc5ccccc5c4)ccc3ncc21 [Dactolisib] + O=C(c1cc(Cc2n[nH]c(=O)c3ccccc23)ccc1F)N1CCN(C(=O)C2CC2)CC1 [Olaparib] (partner 8 µM)
Summary of the method: as §1

Cell Line | relative viability (AZ505 + Lapatinib; first compound 0.08 µM) | relative viability (AZ505 + Lapatinib; first compound 0.253 µM) | relative viability (AZ505 + Lapatinib; first compound 0.8 µM) | relative viability (AZ505 + Lapatinib; first compound 2.53 µM) | relative viability (AZ505 + Lapatinib; first compound 8 µM) | relative viability (Dactolisib + Tozasertib; first compound 0.002 µM) | relative viability (Dactolisib + Tozasertib; first compound 0.006325 µM) | relative viability (Dactolisib + Tozasertib; first compound 0.02 µM) | relative viability (Dactolisib + Tozasertib; first compound 0.06325 µM) | relative viability (Dactolisib + Tozasertib; first compound 0.2 µM) | relative viability (Dactolisib + Alpelisib; first compound 0.002 µM) | relative viability (Dactolisib + Alpelisib; first compound 0.006325 µM) | relative viability (Dactolisib + Alpelisib; first compound 0.02 µM) | relative viability (Dactolisib + Alpelisib; first compound 0.06325 µM) | relative viability (Dactolisib + Alpelisib; first compound 0.2 µM) | relative viability (Dactolisib + Olaparib; first compound 0.002 µM) | relative viability (Dactolisib + Olaparib; first compound 0.006325 µM) | relative viability (Dactolisib + Olaparib; first compound 0.02 µM) | relative viability (Dactolisib + Olaparib; first compound 0.06325 µM) | relative viability (Dactolisib + Olaparib; first compound 0.2 µM)
NCI-H1437 | 0.765 | 0.729 | 0.757 | 0.738 | 0.831 | 0.467 | 0.425 | 0.415 | 0.518 | 0.382 | 1 | 0.991 | 0.918 | 0.836 | 0.81 | 0.686 | 0.6 | 0.629 | 0.64 | 0.543
NCI-H1651 | 0.781 | 0.709 | 0.833 | 0.784 | 0.796 | 0.693 | 0.677 | 0.564 | 0.475 | 0.286 | 1.11 | 0.79 | 0.69 | 0.461 | 0.422 | 0.187 | 0.173 | 0.178 | 0.208 | 0.215
NCI-H1666 | 0.532 | 0.544 | 0.531 | 0.614 | 0.518 | 0.742 | 0.614 | 0.667 | 0.526 | 0.614 | 1.08 | 0.83 | 0.806 | 0.506 | 0.402 | 0.955 | 0.683 | 0.874 | 0.713 | 0.747
NCI-H1734 | 0.991 | 1 | 1.02 | 1.01 | 1 | 0.212 | 0.259 | 0.279 | 0.23 | 0.198 | 0.686 | 0.582 | 0.586 | 0.361 | 0.233 | 0.644 | 0.548 | 0.471 | 0.405 | 0.266
NCI-H1755 | 1.02 | 0.99 | 1.09 | 1.09 | 1.03 | 0.613 | 0.555 | 0.577 | 0.542 | 0.419 | 0.944 | 0.898 | 0.872 | 0.655 | 0.372 | 0.987 | 0.886 | 0.86 | 0.733 | 0.476
NCI-H1793 | 0.541 | 0.524 | 1.04 | 0.75 | 0.889 | 0.329 | 0.242 | 0.199 | 0.126 | 0.106 | 0.588 | 0.4 | 0.241 | 0.21 | 0.157 | 0.784 | 0.299 | 0.254 | 0.18 | 0.169
NCI-H1915 | 1.01 | 1.07 | 0.985 | 1.05 | 1.04 | 0.419 | 0.506 | 0.459 | 0.404 | 0.296 | 1.1 | 1.06 | 1.05 | 0.747 | 0.519 | 0.254 | 0.253 | 0.293 | 0.264 | 0.246
NCI-H1944 | 0.811 | 0.8 | 0.9 | 0.76 | 0.759 | 0.308 | 0.237 | 0.237 | 0.156 | 0.153 | 0.898 | 0.796 | 0.72 | 0.384 | 0.279 | 0.548 | 0.386 | 0.397 | 0.265 | 0.21
NCI-H1975 | 0.773 | 0.82 | 0.858 | 0.9 | 0.885 | 0.753 | 0.724 | 0.578 | 0.267 | 0.138 | 0.612 | 0.549 | 0.396 | 0.238 | 0.201 | 0.778 | 0.817 | 0.632 | 0.302 | 0.269
NCI-H1993 | 0.838 | 0.764 | 0.871 | 0.782 | 0.941 | 0.584 | 0.581 | 0.504 | 0.495 | 0.502 | 0.711 | 0.561 | 0.754 | 0.694 | 0.684 | 1.29 | 0.865 | 0.827 | 0.432 | 0.37
NCI-H2009 | 0.864 | 0.928 | 1.07 | 0.665 | 0.86 | 0.742 | 0.717 | 0.764 | 0.488 | 0.238 | 1.21 | 1.19 | 1.14 | 0.676 | 0.532 | 0.656 | 0.692 | 0.65 | 0.759 | 0.312
NCI-H2023 | 0.674 | 0.822 | 0.845 | 0.917 | 0.815 | 0.351 | 0.312 | 0.313 | 0.109 | 0.0881 | 0.54 | 0.56 | 0.553 | 0.147 | 0.153 | 0.484 | 0.43 | 0.281 | 0.122 | 0.0803
NCI-H2085 | 0.67 | 0.7 | 0.668 | 0.789 | 0.83 | 0.852 | 0.776 | 0.649 | 0.502 | 0.347 | 1.05 | 0.762 | 0.758 | 0.437 | 0.405 | 0.887 | 0.778 | 0.689 | 0.513 | 0.359
NCI-H2087 | 0.856 | 1.01 | 0.983 | 1.31 | 0.958 | 0.328 | 0.248 | 0.243 | 0.176 | 0.192 | 1.17 | 0.994 | 0.805 | 0.574 | 0.668 | 0.719 | 0.474 | 0.631 | 0.197 | 0.243
NCI-H2126 | 0.758 | 0.78 | 0.767 | 0.639 | 0.701 | 0.813 | 0.829 | 0.814 | 0.536 | 0.452 | 0.751 | 0.702 | 0.639 | 0.518 | 0.425 | 0.975 | 0.895 | 0.878 | 0.514 | 0.44
NCI-H2170 | 0.269 | 0.278 | 0.24 | 0.263 | 0.275 | 0.753 | 0.735 | 0.62 | 0.511 | 0.252 | 0.787 | 0.754 | 0.706 | 0.479 | 0.26 | 0.535 | 0.533 | 0.601 | 0.389 | 0.255
